From ChEMBL document CHEMBL1201862, “PubChem BioAssay data set” (2004)
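Tested at 5 concentrations; 48 h exposure; 96-well plates; endpoints linearly interpolated, else capped at highest concentration. Here, GI50 denotes the concentration required for 50% inhibition of growth.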 Activity calls are given as the source filed them. Cut-off read from the data, not from the text of the source: active = GI50 up to about 1.1 µM and inactive = higher.

How the values were obtained:
Assay in all cases: NCI-60 cell line screen, 48 h
SF-268 = system: SF-268
786-0 = system: 786-0
SN12C = system: SN12C
T47D = system: T47D
MDA-MB-435 = system: MDA-MB-435
HT-29 = system: HT-29
SF-295 = system: SF-295
UACC-257 = system: UACC-257
SNB-75 = system: SNB-75
A549 = system: A549
SW-620 = system: SW-620
UACC-62 = system: UACC-62
SK-MEL-2 = system: SK-MEL-2
NCI-H522 = system: NCI-H522
DU-145 = system: DU-145
OVCAR-8 = system: OVCAR-8
OVCAR-3 = system: OVCAR-3
Hs-578T = system: Hs-578T
M14 = system: M14
ACHN = system: ACHN
MDA-N = system: MDA-N
SF-539 = system: SF-539
NCI-H23 = system: NCI-H23
KM12 = system: KM12
U-251 = system: U-251
HOP-92 = system: HOP-92
SNB-19 = system: SNB-19
LOX IMVI = system: LOX IMVI
NCI/ADR-RES = system: NCI/ADR-RES
OVCAR-5 = system: OVCAR-5
SK-MEL-28 = system: SK-MEL-28
Malme-3M = system: Malme-3M
RPMI-8226 = system: RPMI-8226
PC-3 = system: PC-3
SR = system: SR
MDA-MB-231 = system: MDA-MB-231
HOP-62 = system: HOP-62
COLO 205 = system: COLO 205
K562 = system: K562
MCF7 = system: MCF7
RXF 393 = system: RXF 393
NCI-H460 = system: NCI-H460
OVCAR-4 = system: OVCAR-4
EKVX = system: EKVX
IGROV-1 = system: IGROV-1
MOLT-4 = system: MOLT-4
BT-549 = system: BT-549
SK-MEL-5 = system: SK-MEL-5
HCT-15 = system: HCT-15
CAKI-1 = system: CAKI-1
HCT-116 = system: HCT-116
A498 = system: A498
NCI-H226 = system: NCI-H226
TK-10 = system: TK-10
SK-OV-3 = system: SK-OV-3
HL-60 = system: HL-60
UO-31 = system: UO-31
CCRF-CEM = system: CCRF-CEM

## CN(C)CC(C)(C)CN1c2ccccc2Sc2ccccc21
SF-268
  GI50: 14.5 µM (inactive)
786-0
  GI50: 12.9 µM (inactive)
SN12C
  GI50: 12.9 µM (inactive)
T47D
  GI50: 14.2 µM (inactive)
MDA-MB-435
  GI50: 13.4 µM (inactive)
HT-29
  GI50: 10.8 µM (inactive)
SF-295
  GI50: 13.8 µM (inactive)
UACC-257
  GI50: 12 µM (inactive)
SNB-75
  GI50: 4.28 µM (inactive)
A549
  GI50: 15.5 µM (inactive)
SW-620
  GI50: 15 µM (inactive)
UACC-62
  GI50: 14.9 µM (inactive)
SK-MEL-2
  GI50: 15.4 µM (inactive)
NCI-H522
  GI50: 13.2 µM (inactive)
DU-145
  GI50: 12.4 µM (inactive)
OVCAR-8
  GI50: 15.3 µM (inactive)
OVCAR-3
  GI50: 11.9 µM (inactive)
Hs-578T
  GI50: 14 µM (inactive)
M14
  GI50: 10.4 µM (inactive)
ACHN
  GI50: 15.1 µM (inactive)
MDA-N
  GI50: 15 µM (inactive)
SF-539
  GI50: 19.7 µM (inactive)
NCI-H23
  GI50: 16.4 µM (inactive)
KM12
  GI50: 12.8 µM (inactive)
U-251
  GI50: 13.6 µM (inactive)
HOP-92
  GI50: 11.8 µM (inactive)
SNB-19
  GI50: 15.6 µM (inactive)
LOX IMVI
  GI50: 13.6 µM (inactive)
NCI/ADR-RES
  GI50: 12.7 µM (inactive)
OVCAR-5
  GI50: 14.8 µM (inactive)
SK-MEL-28
  GI50: 13.5 µM (inactive)
Malme-3M
  GI50: 14.8 µM (inactive)
RPMI-8226
  GI50: 16.4 µM (inactive)
PC-3
  GI50: 12.9 µM (inactive)
SR
  GI50: 10.1 µM (inactive)
MDA-MB-231
  GI50: 12 µM (inactive)
HOP-62
  GI50: 12.9 µM (inactive)
COLO 205
  GI50: 12.2 µM (inactive)
K562
  GI50: 8.55 µM (inactive)
MCF7
  GI50: 16.4 µM (inactive)
RXF 393
  GI50: 2.12 µM (inactive)
NCI-H460
  GI50: 13.5 µM (inactive)
OVCAR-4
  GI50: 12.9 µM (inactive)
EKVX
  GI50: 15.4 µM (inactive)
IGROV-1
  GI50: 14.9 µM (inactive)
MOLT-4
  GI50: 6.55 µM (inactive)
BT-549
  GI50: 14 µM (inactive)
SK-MEL-5
  GI50: 16 µM (inactive)
HCT-15
  GI50: > 100 µM
CAKI-1
  GI50: 12.1 µM (inactive)
HCT-116
  GI50: 13.8 µM (inactive)
A498
  GI50: 13.6 µM (inactive)
NCI-H226
  GI50: 18 µM (inactive)
TK-10
  GI50: 13.9 µM (inactive)
SK-OV-3
  GI50: 13.2 µM (inactive)

## N#CC1=C(N)OC2=C(CSc3ccccc32)C1c1ccc(Br)cc1 (stereo unspecified)
SF-268
  GI50: 11.1 µM (inactive)
786-0
  GI50: 7.83 µM (inactive)
SN12C
  GI50: 6.19 µM (inactive)
T47D
  GI50: 4.04 µM (inactive)
MDA-MB-435
  GI50: 2.6 µM (inactive)
HT-29
  GI50: 4.59 µM (inactive)
SF-295
  GI50: 12.4 µM (inactive)
UACC-257
  GI50: 12.1 µM (inactive)
SNB-75
  GI50: 7.62 µM (inactive)
A549
  GI50: 7.08 µM (inactive)
SW-620
  GI50: 5.22 µM (inactive)
UACC-62
  GI50: 6.65 µM (inactive)
SK-MEL-2
  GI50: 5.7 µM (inactive)
DU-145
  GI50: 20 µM (inactive)
OVCAR-8
  GI50: 2.75 µM (inactive)
OVCAR-3
  GI50: 5.57 µM (inactive)
Hs-578T
  GI50: 28.1 µM (inactive)
M14
  GI50: 9.27 µM (inactive)
MDA-N
  GI50: 3.32 µM (inactive)
SF-539
  GI50: 3.52 µM (inactive)
NCI-H23
  GI50: 9.75 µM (inactive)
KM12
  GI50: 4.37 µM (inactive)
U-251
  GI50: 4.65 µM (inactive)
HOP-92
  GI50: 6.78 µM (inactive)
SNB-19
  GI50: 17.7 µM (inactive)
LOX IMVI
  GI50: 2.6 µM (inactive)
NCI/ADR-RES
  GI50: 2.15 µM (inactive)
OVCAR-5
  GI50: 11.6 µM (inactive)
SK-MEL-28
  GI50: 12.9 µM (inactive)
Malme-3M
  GI50: 13.4 µM (inactive)
RPMI-8226
  GI50: 2.07 µM (inactive)
HL-60
  GI50: 2.59 µM (inactive)
PC-3
  GI50: 4.42 µM (inactive)
SR
  GI50: 2.54 µM (inactive)
UO-31
  GI50: 11.5 µM (inactive)
MDA-MB-231
  GI50: 11.7 µM (inactive)
HOP-62
  GI50: 14.1 µM (inactive)
COLO 205
  GI50: 2.94 µM (inactive)
K562
  GI50: 3.38 µM (inactive)
CCRF-CEM
  GI50: 2.72 µM (inactive)
MCF7
  GI50: 3.42 µM (inactive)
RXF 393
  GI50: 4.04 µM (inactive)
NCI-H460
  GI50: 12.1 µM (inactive)
OVCAR-4
  GI50: 5.79 µM (inactive)
EKVX
  GI50: 2.81 µM (inactive)
IGROV-1
  GI50: 6.97 µM (inactive)
MOLT-4
  GI50: 2.84 µM (inactive)
BT-549
  GI50: 10.7 µM (inactive)
SK-MEL-5
  GI50: 11.6 µM (inactive)
HCT-15
  GI50: 4.7 µM
CAKI-1
  GI50: 4.49 µM (inactive)
HCT-116
  GI50: 2.96 µM (inactive)
A498
  GI50: 13 µM (inactive)
NCI-H226
  GI50: 11.5 µM (inactive)
TK-10
  GI50: 13.6 µM (inactive)
SK-OV-3
  GI50: 13.4 µM (inactive)
